Among the data in BindingDB's records for doi:10.1016/j.bmc.2019.115193 (Stanford University, 2020) are EC50 values, retold here.

Molecules are shown by their SMILES.

This test can be described thus: Inhibition of human DYRK1A transfected in HEK293T cells co-transfected with Renilla plasmid, pGL3-NFAT and NFATc1 assessed as derepression of NFAT-dependent luciferase activity measured after 48 hrs by luciferase assay.

The EC50 is the concentration giving half of the maximal effect. As for `CCOC(=O)c1cnc2ccc(-c3ccnc(C)c3)nc2c1N[C@H]1CC[C@H](CN(C)C)CC1`, the 50% effective concentration (EC50) amounted to 1.53 µM.
